# Non-standard residues stand in square brackets, D forms with d. Residues, ends and D or L forms follow the SMILES beside them. No end group written: not given here. pS = N[C@@H](COP(=O)(O)O)C(=O)O
# What was measured:
# [1] = tested on: C. auris; test: CLSI M27-A3 broth microdilution; type: cell-based, Candida auris; conditions: for GM MIC (≥90% reduction of visible growth): 256–16 μg/mL tested, duplicate at two times
# [2] = tested on: C. krusei ATCC 6558; test: Broth microdilution of modified HDPs; type: cell-based, Candida krusei; conditions: 0.19 to 50 μg/mL tested
# Description: (§1) Materials & Methods: From the Scarabaeidae family transcriptome, 14 promising HDPs were identified. Subsequently, we designed new sequences modifying the net charge, hydrophobic angle and the general composition of amino acids, among other properties, in order to improve the HDPs antifungal activity. The in vitro antifungal susceptibility of the 14 modified HDPs against Candida krusei, ATCC 6558, Candida parapsilosis ATCC 22019, Candida glabrata ATCC 2001, Candida tropicalis ATCC 750, Cryptococcus neoformans H99 and Cryptococcus gattii H0058-I-2029 isolates were evaluated by broth microdilution, with a concentration ranging from 0.19 to 50 μg/mL for all peptides.
# [3] = tested on: C. parapsilosis ATCC 22019; test: Broth microdilution of modified HDPs; type: cell-based, Candida parapsilosis; conditions: 0.19 to 50 μg/mL tested
# Description: as §1
# [4] = tested on: C. albicans SC5314; test: Broth microdilution of modified HDPs; type: cell-based, Candida albicans; conditions: 0.19 to 50 μg/mL tested
# [5] = tested on: C. tropicalis ATCC 750; test: Broth microdilution of modified HDPs; type: cell-based, Candida tropicalis; conditions: 0.19 to 50 μg/mL tested
# Description: as §1
# [6] = tested on: C. albicans ATCC 1453; test: Broth microdilution of modified HDPs; type: cell-based, Candida albicans; conditions: 0.19 to 50 μg/mL tested
# [7] = tested on: C. glabrata ATCC 2001; test: Broth microdilution of modified HDPs; type: cell-based, Candida glabrata; conditions: 0.19 to 50 μg/mL tested
# Description: as §1
# [8] = tested on: C. neoformans H99; test: Broth microdilution of modified HDPs; type: cell-based, Cryptococcus neoformans; conditions: 0.19 to 50 μg/mL tested
# Description: as §1
# [9] = tested on: C. gattii H0058-I-2029; test: Broth microdilution of modified HDPs; type: cell-based, Cryptococcus gattii; conditions: 0.19 to 50 μg/mL tested
# Description: as §1
# [10] = tested on: P. insidiosum (strains CBS101555, P38, ATCC90586); test: Radial growth assay; type: cell-based, Pythium insidiosum
# Description: These agriculture fungicides were initially evaluated for inhibitory effect against 3 phylogenetical distinct strains of P. insidiosum (i.e., strains CBS101555, P38, and ATCC90586) isolated from humans and animal with pythiosis in Thailand, Brazil, and United States. A radial growth assay was employed for the in vitro susceptibility analysis. […] The percentage of the colony’s radial growth of the treated organism was calculated in relation to the untreated control. The microscopic changes of the microorganisms were recorded.
# [11] = tested on: C. auris; test: EUCAST EDef 7.3.1 MIC and checkerboard microdilution; type: cell-based, Candida auris
# Description: Methods: We studied 22 C. auris isolates obtained from different clinical samples from the Hospital La Fe, Valencia, Spain (eight from blood culture, seven from oropharynx and seven from urine cultures). Candida parapsilosis ATCC 22019 and Candida krusei ATCC 6258 were used as quality controls. The minimum inhibitory concentration (MIC) was determined according to the European Committee on Antibiotic Susceptibility Testing (EUCAST) EDef 7.3.1 document. The interaction between citral and the rest of antifungal drugs was assessed by a checkerboard microdilution method. […] The in vitro interaction of the drug combinations was interpreted in terms of the fractional inhibitory concentration index (FICI) as follows: FICI < 1, synergistic; FICI equal to 1, additive; and FICI > 1, indifferent or antagonistic.
# [12] = tested on: nine strains of Candida spp.; test: CLSI M27-A3 broth microdilution; type: cell-based
Molecule,MIC [2] [µg/mL],MIC [3] [µg/mL],MIC [4] [µg/mL],MIC [5] [µg/mL],MIC [6] [µg/mL],MIC [7] [µg/mL],MIC [8] [µg/mL],MIC [9] [µg/mL],other results
Cc1ccc(C(C)C)cc1O [carvacrol],–,–,–,–,–,–,–,–,GM MIC (≥90% reduction of visible growth) [1]: 215.3 µg/mL
GSKRWRKFEKRVKKIFEHTKEA-NH2 [Act7],0.78,1.56,>50,>50,>50,3.12,50,3.12,–
COc1ccc(C(=CC(=O)N2CCOCC2)c2ccc(Cl)cc2)cc1OC [dimethomorph],–,–,–,–,–,–,–,–,inhibition [10]: no significant inhibition
KSKRWRKFEKRVKKIFEKTKEAK-NH2 [Act2],0.78,1.56,>50,50,>50,1.56,25,3.12,–
GSKRWRKFEKRVKK-NH2 [domcec],3.12,3.12,>50,>50,>50,6.25,>50,>50,–
Cc1ccc(C(C)C)c(O)c1 [thymol],–,–,–,–,–,–,–,–,GM MIC (≥90% reduction of visible growth) [1]: 104 µg/mL
CC[C@H](C)[C@H](NC(=O)[C@H](CCCCN)NC(=O)[C@H](CCCCN)NC(=O)[C@@H](NC(=O)[C@H](CCCNC(=N)N)NC(=O)[C@H](CCCCN)NC(=O)[C@H](CCC(=O)O)NC(=O)[C@H](Cc1ccccc1)NC(=O)[C@H](CCCCN)NC(=O)[C@H](CCCNC(=N)N)NC(=O)[C@H](Cc1c[nH]c2ccccc12)NC(=O)[C@H](CCCNC(=N)N)NC(=O)[C@H](CCCCN)NC(=O)[C@H](COP(=O)(O)O)NC(=O)[C@@H](N)CCCCN)C(C)C)C(=O)N[C@@H](Cc1ccccc1)C(=O)N[C@@H](CCC(=O)O)C(=O)N[C@@H](CCCCN)C(=O)N[C@H](C(=O)N[C@@H](CCCCN)C(=O)N[C@@H](CCC(=O)O)C(=O)N[C@@H](C)C(=O)N[C@@H](CCCCN)C(N)=O)[C@@H](C)O [Act2.1] (H-K[pS]KRWRKFEKRVKKIFEKTKEAK-NH2),0.78,1.56,>50,>50,>50,1.56,>50,1.56,–
Cc1ccc(C(C)C)cc1 [p-cymene],–,–,–,–,–,–,–,–,GM MIC (≥90% reduction of visible growth) [1]: 215.3 µg/mL
KSKRWRKFEKRVKKIFEKTKEA-NH2 [Act1],1.56,3.12,>50,50,>50,3.12,50,6.25,–
CC(C)=CCCC(C)=CC=O (mixture of isomers) [citral],–,–,–,–,–,–,–,–,"MIC of citral in combination with anidulafungin ([11]; 21 of the 22 isolates): 3 to 128 µg/mL; MIC ([11]; Candidozyma auris, 22 clinical isolates): > 1020 µg/mL; isolates with additive effect (FICI equal to 1) ([11]; citral + fluconazole): eight; isolates with synergistic effect (FICI < 1) ([11]; citral + fluconazole): three; isolates with additive effect (FICI equal to 1) ([11]; citral + isavuconazole): seven; isolates with synergistic effect (FICI < 1) ([11]; citral + isavuconazole): seven"
GSKRWRKFEKRVKKIFEKTKEAK-NH2 [Act6],0.78,1.56,>50,>50,>50,3.12,50,3.12,–
C=C(C)[C@H]1CC=C(C)CC1 [D-limonene],–,–,–,–,–,–,–,–,MICs range [1]: 16 to 128 µg/mL; GM MIC (≥90% reduction of visible growth) [1]: 20.39 µg/mL; selectivity index (SI) ([12]; C. glabrata LMDM 34 vs HaCat): 6; selectivity index (SI) ([12]; C. methapsilosis MUM 1512 vs HaCat): 50; selectivity index (SI) ([12]; C. orthopsilosis MUM 1713 vs HaCat): 25; selectivity index (SI) ([12]; C. tropicalis ATCC 200956 vs HaCat): 12
KSKRWRKFEKRVKKIFEHTKEAK-NH2 [Act4],0.78,1.56,>50,50,>50,3.12,50,1.56,–
GSKRWRKFEKRVKKVFEHTKEA-NH2 [ox322],1.56,1.56,>50,>50,>50,3.12,50,3.12,–
GSKRWRKFEKRVKKIFEKTKEA-NH2 [Act5],1.56,3.12,25 to 50,>50,>50,3.12,25,1.56,–
KSKRWRKFEKRVKKIFEKFKEAK-NH2 [Act2.2],0.78,1.56,>50,12.5,>50,1.56,12.5,1.56,–
RSKKWRKIEKRVKKIFEKTKEA-NH2 [sat122],1.56,0.39,>50,50,>50,3.12,50,3.12,–
GSKRWRKFEKRVKKIFEETKEALPVVQGVAGVAGAVGRR-NH2 [ConCec],0.78,0.39,>50,25,>50,1.56,25,1.56,–
KSKRWRKFEKRVKKIFEHTKEA-NH2 [Act3],0.78,3.12,>50,>50,>50,1.56,50,3.12,–
GSKRWRKFEKRVKKIFEHTKEAK-NH2 [Act8],0.78,1.56,>50,>50,>50,3.12,50,3.12,–

# Source: article PMC8624133, “10th Trends in Medical Mycology Held on 8 to 11 October 2021, Aberdeen, Scotland, Organized by the European Confederation of Medical Mycology (ECMM)” (Journal of Fungi, 2021)
